Experimental data published in patent publication US8227207B2, “Bioactive peptides derived from the proteins of egg white by means of enzymatic hydrolysis” (Consejo Superior de Investigaciones Cientifcas, priority 2004, dated 2012).
Entries after “also recorded” stand apart in the source; their conditions may differ. Residues, ends and D or L forms follow the SMILES beside them.

System: spontaneously hypertensive rats (SHR)
Assay: Antihypertensive activity: systolic arterial pressure (tail cuff) in spontaneously hypertensive rats
Format: in vivo, rat
Procedure: The effect is studied of various identified peptides and of some products containing them (for example egg white hydrolysed with pepsin for 3 hours and the fraction of it less than 3000 Da) on the arterial pressure of spontaneously hypertensive rats (SHR) and Wistar-Kyoto rats (WKY) which are the normotense controls for the SHR.
This study is conducted with SHR (10) and WKY of 17-24 weeks old and weight between 300 and 350 g, coming from Charles River Laboratories España, S. A. The rats are kept in cages of five by five and maintained at a stable temperature of 25° C. with light-dark cycles of 12 hours, ingesting freely available water and food. In order to carry out the measurement of systolic arterial pressure (SAP) “tail cuff” equipment is used (Le5001, Letica) which automatically provides a digital value of the SAP and records and facilitates the cardiac frequency of the animals. Various measurements are made and the average of all of them is obtained in order to achieve a reliable value of the SAP. Before positioning the cuff and transducer in the tail of the rats, the rats are exposed to a temperature of close to 30° C. in order to facilitate dilation of the caudal artery. Also, in order to ensure the reliability of the measurement, the animals are made to get used to the procedure for two weeks prior to conducting each assay in question.
The administration of the products to be assayed is done by means of an intragastric probe in a time margin of between 9 and 10 o'clock in the morning. The SHR used for the study had SAP values of between 230 and 280 mm Hg. The WKY used for the study at that moment had SAP values of between 160 and 200 mm Hg. Measurements of the SAP were taken from the animals periodically, every 2 hours, up to 8 hours post-administration of the products to be assayed; in addition, a SAP measurement was taken 24 hours after the administration of those products. As negative control (in order to establish the circadian variation of the SAP in probed rats) the measurements of the SAP obtained in rats which had been administered 1 ml of water by means of intragastric probe were used. As positive control, the measurements of the SAP obtained in rats which had been administered 50 mg/kg of Captopril (prototype ACEI drug) by means of intragastric probe were used. This dose of Captopril was administered to each rat in a volume of 1 ml. In order to establish the effect of the unhydrolysed egg white on the arterial pressure of the animals, similar assays to those described above were conducted, in which the animals were treated by the same procedure with 200 mg/kg of previously freeze-dried egg white (reference).
The results obtained are grouped and the mean±the standard error of measurement (SEM) is obtained for a minimum of 9 homogenous assays. The data of the treated animals are always compared with the data deemed to be a negative control. In order to compare them and obtain the statistical significance, Student's t-test for unpaired data is used and the difference for values of p<0.05 is considered significant.

CC[C@H](C)[C@H](NC(=O)[C@@H]1CCCN1C(=O)[C@H](Cc1ccc(O)cc1)NC(=O)[C@H](CCCNC(=N)N)NC(=O)[C@H](CCC(=O)O)NC(=O)[C@H](CCC(=O)O)NC(=O)[C@H](C)NC(=O)[C@@H](N)Cc1ccc(O)cc1)C(=O)N[C@@H](CC(C)C)C(=O)O [SEQ. ID. N^o 6] (H-YAEERYPIL-OH; N-terminus and C-terminus assumed)
time of maximum drop in SAP after administration (intragastric probe): 6 h
drop in systolic arterial pressure (SAP) / anti-hypertensive activity (in words) (single administration by intragastric probe): possess anti-hypertensive activity; also recorded: significant dose-dependent drop in the SAP; also recorded: clear and pronounced anti-hypertensive effect; also recorded: display anti-hypertensive activity
